Results published in ChEMBL document CHEMBL1201862, “PubChem BioAssay data set” (2004).
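Values below derive from 48-hour exposures of cells grown in 96-well plates, with endpoints linearly interpolated between the two concentrations bracketing the appropriate inhibition level. GI50 = concentration required for 50% inhibition of growth.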 Active and inactive are the calls of the source. Cut-off read from the data, not from the text of the source: active = GI50 up to about 1.1 µM and inactive = higher.

How the values were obtained:
Test in all cases: growth of human tumour cells (NCI), 48 h
Hs-578T = tested on: Hs-578T
HCC 2998 = tested on: HCC 2998
NCI/ADR-RES = tested on: NCI/ADR-RES
RXF 393 = tested on: RXF 393
IGROV-1 = tested on: IGROV-1
SK-MEL-28 = tested on: SK-MEL-28
CCRF-CEM = tested on: CCRF-CEM
SF-295 = tested on: SF-295
A498 = tested on: A498
MDA-MB-435 = tested on: MDA-MB-435
U-251 = tested on: U-251
PC-3 = tested on: PC-3
SF-268 = tested on: SF-268
HCT-116 = tested on: HCT-116
SF-539 = tested on: SF-539
NCI-H23 = tested on: NCI-H23
ACHN = tested on: ACHN
HOP-62 = tested on: HOP-62
NCI-H226 = tested on: NCI-H226
M14 = tested on: M14
MCF7 = tested on: MCF7
Malme-3M = tested on: Malme-3M
T47D = tested on: T47D
K562 = tested on: K562
786-0 = tested on: 786-0
A549 = tested on: A549
RPMI-8226 = tested on: RPMI-8226
SK-OV-3 = tested on: SK-OV-3
OVCAR-5 = tested on: OVCAR-5
TK-10 = tested on: TK-10
SNB-19 = tested on: SNB-19
NCI-H522 = tested on: NCI-H522
EKVX = tested on: EKVX
UACC-62 = tested on: UACC-62
UO-31 = tested on: UO-31
SNB-75 = tested on: SNB-75
SN12C = tested on: SN12C
SR = tested on: SR
OVCAR-3 = tested on: OVCAR-3
OVCAR-4 = tested on: OVCAR-4
LOX IMVI = tested on: LOX IMVI
MDA-N = tested on: MDA-N
UACC-257 = tested on: UACC-257
SK-MEL-5 = tested on: SK-MEL-5
SW-620 = tested on: SW-620
HOP-92 = tested on: HOP-92
HT-29 = tested on: HT-29
COLO 205 = tested on: COLO 205
BT-549 = tested on: BT-549
HL-60 = tested on: HL-60
MDA-MB-231 = tested on: MDA-MB-231
DU-145 = tested on: DU-145
CAKI-1 = tested on: CAKI-1
NCI-H460 = tested on: NCI-H460
KM12 = tested on: KM12
MOLT-4 = tested on: MOLT-4
OVCAR-8 = tested on: OVCAR-8
HCT-15 = tested on: HCT-15

## O=C(O)c1cc(O)c2c(c1)C([C@@H]1c3cccc(O)c3C(=O)c3c(O)cc(C(=O)O)cc31)c1cccc(O)c1C2=O (some centres undefined)
Hs-578T
  GI50: 24.9 µM (inactive)
HCC 2998
  GI50: 47.4 µM (inactive)
NCI/ADR-RES
  GI50: 43.8 µM (inactive)
RXF 393
  GI50: 28.2 µM (inactive)
IGROV-1
  GI50: 22.9 µM (inactive)
SK-MEL-28
  GI50: 33.2 µM (inactive)
CCRF-CEM
  GI50: 30.5 µM (inactive)
SF-295
  GI50: 34.7 µM (inactive)
A498
  GI50: 22.7 µM (inactive)
MDA-MB-435
  GI50: 24.6 µM (inactive)
U-251
  GI50: 25.4 µM (inactive)
PC-3
  GI50: 36.1 µM (inactive)
SF-268
  GI50: 31.4 µM (inactive)
HCT-116
  GI50: 20.4 µM (inactive)
SF-539
  GI50: 19.5 µM (inactive)
NCI-H23
  GI50: 30.4 µM (inactive)
ACHN
  GI50: 81.5 µM (inactive)
HOP-62
  GI50: > 10 µM (inactive)
NCI-H226
  GI50: 33.7 µM (inactive)
M14
  GI50: > 10 µM (inactive)
MCF7
  GI50: 37 µM (inactive)
Malme-3M
  GI50: 23.7 µM (inactive)
T47D
  GI50: 59.6 µM (inactive)
K562
  GI50: 23.8 µM (inactive)
786-0
  GI50: 51.5 µM (inactive)
A549
  GI50: > 100 µM (inactive)
RPMI-8226
  GI50: 32.9 µM (inactive)
SK-OV-3
  GI50: > 100 µM (inactive)
OVCAR-5
  GI50: > 100 µM (inactive)
TK-10
  GI50: 99.1 µM (inactive)
SNB-19
  GI50: 57 µM (inactive)
NCI-H522
  GI50: 19.7 µM (inactive)
EKVX
  GI50: 37.2 µM (inactive)
UACC-62
  GI50: 31 µM (inactive)
UO-31
  GI50: > 100 µM (inactive)
SNB-75
  GI50: 25.3 µM (inactive)
SN12C
  GI50: 34.7 µM (inactive)
SR
  GI50: 39.3 µM (inactive)
OVCAR-3
  GI50: 66.5 µM (inactive)
OVCAR-4
  GI50: > 100 µM (inactive)
LOX IMVI
  GI50: 15.8 µM (inactive)
MDA-N
  GI50: 20.3 µM (inactive)
UACC-257
  GI50: 35.5 µM (inactive)
SK-MEL-5
  GI50: 17.6 µM (inactive)
SW-620
  GI50: 35.4 µM (inactive)
HOP-92
  GI50: 23.2 µM (inactive)
HT-29
  GI50: 96.2 µM (inactive)
COLO 205
  GI50: > 100 µM (inactive)
BT-549
  GI50: 51.1 µM (inactive)
HL-60
  GI50: 29.9 µM (inactive)
MDA-MB-231
  GI50: 23.5 µM (inactive)
DU-145
  GI50: > 100 µM (inactive)
CAKI-1
  GI50: > 100 µM (inactive)
NCI-H460
  GI50: > 100 µM (inactive)
KM12
  GI50: 20.5 µM (inactive)
MOLT-4
  GI50: 20.7 µM (inactive)
OVCAR-8
  GI50: 33.4 µM (inactive)

## Cc1nc2ccccc2c(=O)n1NC(=O)c1ccc(CS)cc1
Hs-578T
  GI50: 16.6 µM (inactive)
HCC 2998
  GI50: 18.5 µM (inactive)
NCI/ADR-RES
  GI50: 28.6 µM (inactive)
RXF 393
  GI50: > 10 µM (inactive)
IGROV-1
  GI50: 8.59 µM (inactive)
SK-MEL-28
  GI50: 12.7 µM (inactive)
CCRF-CEM
  GI50: 0.82 µM (active)
SF-295
  GI50: 25.8 µM (inactive)
A498
  GI50: 11.2 µM (inactive)
MDA-MB-435
  GI50: 12.9 µM (inactive)
U-251
  GI50: 3.94 µM (inactive)
PC-3
  GI50: 1.74 µM (inactive)
SF-268
  GI50: 4.06 µM (inactive)
HCT-116
  GI50: 4.4 µM (inactive)
SF-539
  GI50: 12.9 µM (inactive)
NCI-H23
  GI50: 15.6 µM (inactive)
ACHN
  GI50: 10.9 µM (inactive)
HOP-62
  GI50: 18.8 µM (inactive)
NCI-H226
  GI50: 2.84 µM (inactive)
HCT-15
  GI50: 16.4 µM
M14
  GI50: 12.2 µM (inactive)
MCF7
  GI50: 5.64 µM (inactive)
Malme-3M
  GI50: 27.9 µM (inactive)
T47D
  GI50: 16.7 µM (inactive)
K562
  GI50: 6.21 µM (inactive)
786-0
  GI50: 11.5 µM (inactive)
A549
  GI50: 7.48 µM (inactive)
RPMI-8226
  GI50: 11.1 µM (inactive)
SK-OV-3
  GI50: 17.8 µM (inactive)
OVCAR-5
  GI50: 34.5 µM (inactive)
TK-10
  GI50: > 10 µM (inactive)
SNB-19
  GI50: 38.2 µM (inactive)
NCI-H522
  GI50: 12.3 µM (inactive)
EKVX
  GI50: 4.76 µM (inactive)
UACC-62
  GI50: 6.58 µM (inactive)
UO-31
  GI50: 12.5 µM (inactive)
SNB-75
  GI50: 14.9 µM (inactive)
SN12C
  GI50: 11.9 µM (inactive)
SR
  GI50: 2.97 µM (inactive)
OVCAR-3
  GI50: 11.8 µM (inactive)
OVCAR-4
  GI50: 15.1 µM (inactive)
LOX IMVI
  GI50: 0.145 µM (active)
MDA-N
  GI50: > 10 µM (inactive)
UACC-257
  GI50: 20.4 µM (inactive)
SK-MEL-5
  GI50: 3.92 µM (inactive)
SW-620
  GI50: 6 µM (inactive)
HOP-92
  GI50: 7.85 µM (inactive)
HT-29
  GI50: 10.8 µM (inactive)
COLO 205
  GI50: 15.2 µM (inactive)
BT-549
  GI50: 13.7 µM (inactive)
HL-60
  GI50: 2.7 µM (inactive)
MDA-MB-231
  GI50: 13 µM (inactive)
DU-145
  GI50: 28.1 µM (inactive)
NCI-H460
  GI50: 19 µM (inactive)
KM12
  GI50: 15.3 µM (inactive)
MOLT-4
  GI50: 1.02 µM (active)
OVCAR-8
  GI50: 20.8 µM (inactive)
